Patent publication US10059701B2 (Merck Patent GmbH, priority 2015, dated 2018)
pIC50: −log10 of the molar value.

What was measured:
IRAK1 = target: T1, IRAK1 (Homo sapiens, UniProt P51617); experiment: IRAK1 enzymatic assay (ADP-Glo luminescence); type: biochemical; settings: purified human recombinant His-TEV-IRAK1 (194-712)
T1 construct: His-TEV-IRAK1 (194-712); His (N); TEV cleavage site (N)
Procedure, shortened: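 Recombinant human His-TEV-IRAK1 (194-712), 0.3 μg/ml, preincubated 15 min at RT with compounds (10 μM to 0.5 nM) in 50 mM Hepes pH 7.0, 10 mM MgCl2, 2 mM DTT, 0.1% BSA. ATP-started reaction run 2 hours at RT; ADP formed from ATP hydrolysis/autophosphorylation read by ADP-Glo luminescence.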

IRAK4 = target: T2, IRAK4 (Homo sapiens, UniProt Q9NWZ3); experiment: IRAK4 enzymatic assay (ADP-Glo luminescence); type: biochemical; settings: purified human recombinant His-TEV-IRAK4 (1-460), ATP 2 μM
T2 construct: His-TEV-IRAK4 (1-460); His (N); TEV cleavage site (N)
T2 sequence (Q9NWZ3 1-460): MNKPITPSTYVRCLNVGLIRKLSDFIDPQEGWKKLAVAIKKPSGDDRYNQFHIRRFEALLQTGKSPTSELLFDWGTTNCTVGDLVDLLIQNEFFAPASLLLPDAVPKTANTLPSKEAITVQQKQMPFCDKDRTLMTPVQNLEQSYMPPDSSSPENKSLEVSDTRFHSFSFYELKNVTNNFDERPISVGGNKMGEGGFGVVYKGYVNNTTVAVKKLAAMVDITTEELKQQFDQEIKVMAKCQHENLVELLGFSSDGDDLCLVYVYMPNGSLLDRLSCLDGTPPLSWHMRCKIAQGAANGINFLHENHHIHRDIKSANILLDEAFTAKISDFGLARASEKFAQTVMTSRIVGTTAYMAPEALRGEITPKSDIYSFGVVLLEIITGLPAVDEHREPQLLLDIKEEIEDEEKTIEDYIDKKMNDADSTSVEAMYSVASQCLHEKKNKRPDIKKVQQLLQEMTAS
Procedure, shortened: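 Recombinant His-TEV-IRAK4 (1-460) at 0.3 μg/ml preincubated 15 min at RT with compounds (10 μM to 0.5 nM) in Hepes pH 7.0 buffer with MgCl2/MnCl2. Reaction started with 2 μM ATP and 300 nM STK1-biotin peptide, run 2 h at RT. ADP formed read by ADP-Glo luminescence.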

T1 sequence (P51617 194-712): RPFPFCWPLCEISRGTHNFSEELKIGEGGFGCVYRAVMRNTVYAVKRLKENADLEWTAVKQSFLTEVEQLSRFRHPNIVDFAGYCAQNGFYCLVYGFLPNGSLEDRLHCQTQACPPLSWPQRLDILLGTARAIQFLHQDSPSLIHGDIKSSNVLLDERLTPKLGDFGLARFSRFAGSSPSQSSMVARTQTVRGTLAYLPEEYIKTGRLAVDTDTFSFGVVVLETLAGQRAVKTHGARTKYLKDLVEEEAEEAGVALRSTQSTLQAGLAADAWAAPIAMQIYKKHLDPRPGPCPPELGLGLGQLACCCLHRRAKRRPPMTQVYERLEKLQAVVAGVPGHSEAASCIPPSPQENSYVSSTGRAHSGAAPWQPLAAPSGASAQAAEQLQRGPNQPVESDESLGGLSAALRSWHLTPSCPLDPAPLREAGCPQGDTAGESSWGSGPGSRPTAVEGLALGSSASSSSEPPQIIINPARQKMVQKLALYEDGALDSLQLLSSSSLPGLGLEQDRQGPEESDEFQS

SMILES | pIC50 (IRAK1) | pIC50 (IRAK4)
O=C(/C=C1\Nc2cc(N3CCOCC3=O)ccc2N1CCCO)c1ccc2ccccc2n1 [Compound 149, (E)-4-(1-(3-hydroxypropyl)-2-(2-oxo-2-(quinolin-2-yl)ethylidene)-2,3-dihydro-1H-benzo[d]imidazol-5-yl)morpholin-3-one] | < 6.00 | < 6.00
NC(=O)[C@H]1CC[C@@H](n2/c(=N/C(=O)c3cccc(C(F)(F)F)c3)[nH]c3cc(N4CCOCC4=O)ccc32)CC1 [Compound 150, (E)-N-(1-((1s,4s)-4-carbamoylcyclohexyl)-5-(3-oxomorpholino)-1H-benzo[d]imidazol-2(3H)-ylidene)-3-(trifluoromethyl)benzamide] | 6.00 to 7.00 | ≥ 7.00
O=C(/N=c1\[nH]c2cc(N3CCOCC3=O)ccc2n1CCCO)c1cccc(SC(F)(F)F)c1 [Compound 151, (E)-N-(1-(3-hydroxypropyl)-5-(3-oxomorpholino)-1H-benzo[d]imidazol-2(3H)-ylidene)-3-((trifluoromethyl)thio)benzamide] | ≥ 7.00 | ≥ 7.00
O=C(/N=c1\[nH]c2cc(N3CCOCC3=O)ccc2n1CCCO)c1cccc(S(=O)(=O)C(F)(F)F)c1 [Compound 152, (E)-N-(1-(3-hydroxypropyl)-5-(3-oxomorpholino)-1H-benzo[d]imidazol-2(3H)-ylidene)-3-((trifluoromethyl)sulfonyl)benzamide] | ≥ 7.00 | ≥ 7.00
Cn1ccc(-c2cccc(C(=O)/N=c3\[nH]c4cc(N5CCOCC5=O)ccc4n3CCCO)c2)cc1=O [Compound 153, (E)-N-(1-(3-hydroxypropyl)-5-(3-oxomorpholino)-1H-benzo[d]imidazol-2(3H)-ylidene)-3-(1-methyl-2-oxo-1,2-dihydropyridin-4-yl)benzamide] | ≥ 7.00 | ≥ 7.00
O=C1C[C@H](n2/c(=N/C(=O)c3cccc(C(F)(F)F)c3)[nH]c3cc(N4CCCOC4=O)ccc32)CN1 [Compound 154, (S,E)-N-(5-(2-oxo-1,3-oxazinan-3-yl)-1-(5-oxopyrrolidin-3-yl)-1H-benzo[d]imidazol-2(3H)-ylidene)-3-(trifluoromethyl)benzamide] | < 6.00 | 6.00 to 7.00
O=C(/N=c1\[nH]c2cc(N3CCCOC3=O)ccc2n1CC1CCOCC1)c1cccc(C(F)(F)F)c1 [Compound 155, (E)-N-(5-(2-oxo-1,3-oxazinan-3-yl)-1-((tetrahydro-2H-pyran-4-yl)methyl)-1H-benzo[d]imidazol-2(3H)-ylidene)-3-(trifluoromethyl)benzamide] | 6.00 to 7.00 | ≥ 7.00
O=C(/N=c1\[nH]c2cc(N3CCCOC3=O)ccc2n1C1CC(F)(F)C1)c1cccc(C(F)(F)F)c1 [Compound 156, (E)-N-(1-(3,3-difluorocyclobutyl)-5-(2-oxo-1,3-oxazinan-3-yl)-1H-benzo[d]imidazol-2(3H)-ylidene)-3-(trifluoromethyl)benzamide] | 6.00 to 7.00 | ≥ 7.00
O=C(/N=c1\[nH]c2cc(N3CCCOC3=O)ccc2n1C1CCS(=O)(=O)C1)c1cccc(C(F)(F)F)c1 (stereo not shown) [Compound 157, (E)-N-(1-(1,1-dioxidotetrahydrothiophen-3-yl)-5-(2-oxo-1,3-oxazinan-3-yl)-1H-benzo[d]imidazol-2(3H)-ylidene)-3-(trifluoromethyl)benzamide] | ≥ 7.00 | ≥ 7.00
O=C(/N=c1\[nH]c2cc(N3CCCOC3=O)ccc2n1CC1COC1)c1cccc(C(F)(F)F)c1 [Compound 158, (E)-N-(1-(oxetan-3-ylmethyl)-5-(2-oxo-1,3-oxazinan-3-yl)-1H-benzo[d]imidazol-2(3H)-ylidene)-3-(trifluoromethyl)benzamide] | 6.00 to 7.00 | ≥ 7.00
O=C(/N=c1\[nH]c2cc(N3CCCOC3=O)ccc2n1CC1COC1)c1cccc(C(F)F)c1 [Compound 159, (E)-3-(difluoromethyl)-N-(1-(oxetan-3-ylmethyl)-5-(2-oxo-1,3-oxazinan-3-yl)-1H-benzo[d]imidazol-2(3H)-ylidene)benzamide] | 6.00 to 7.00 | ≥ 7.00
O=C(/N=c1\[nH]c2cc(N3CCCOC3=O)ccc2n1CC1CCCCO1)c1cccc(C(F)F)c1 (stereo not shown) [Compound 160, (E)-3-(difluoromethyl)-N-(5-(2-oxo-1,3-oxazinan-3-yl)-1-((tetrahydro-2H-pyran-2-yl)methyl)-1H-benzo[d]imidazol-2(3H)-ylidene)benzamide] | 6.00 to 7.00 | ≥ 7.00
N#Cc1cccc(C(=O)/N=c2\[nH]c3cc(N4CCCOC4=O)ccc3n2CC2CCCCO2)c1 (stereo not shown) [Compound 161, (E)-3-cyano-N-(5-(2-oxo-1,3-oxazinan-3-yl)-1-((tetrahydro-2H-pyran-2-yl)methyl)-1H-benzo[d]imidazol-2(3H)-ylidene)benzamide] | ≥ 7.00 | ≥ 7.00
O=C(/N=c1\[nH]c2cc(N3CCCOC3=O)ccc2n1CC1(O)CCCC1)c1cccc(C(F)(F)F)c1 [Compound 162, (E)-N-(1-((1-hydroxycyclopentyl)methyl)-5-(2-oxo-1,3-oxazinan-3-yl)-1H-benzo[d]imidazol-2(3H)-ylidene)-3-(trifluoromethyl)benzamide] | ≥ 7.00 | ≥ 7.00
O=C(/N=c1\[nH]c2cc(N3CCOCC3=O)ccc2n1CCCO)c1cccc(-c2ccn(CC(F)(F)F)c(=O)c2)c1 [Compound 163, (E)-N-(1-(3-hydroxypropyl)-5-(3-oxomorpholino)-1H-benzo[d]imidazol-2(3H)-ylidene)-3-(2-oxo-1-(2,2,2-trifluoroethyl)-1,2-dihydropyridin-4-yl)benzamide] | 6.00 to 7.00 | ≥ 7.00
O=C(/N=c1\[nH]c2cc(N3CCOCC3=O)ccc2n1CCCO)c1cccc(-c2ccn(C(F)F)c(=O)c2)c1 [Compound 164, (E)-3-(1-(difluoromethyl)-2-oxo-1,2-dihydropyridin-4-yl)-N-(1-(3-hydroxypropyl)-5-(3-oxomorpholino)-1H-benzo[d]imidazol-2(3H)-ylidene)benzamide] | 6.00 to 7.00 | ≥ 7.00
CN1CCC(n2/c(=N/C(=O)c3cccc(C(F)F)c3)[nH]c3cc(N4CCOCC4=O)ccc32)CC1 [Compound 165, (E)-3-(difluoromethyl)-N-(1-(1-methylpiperidin-4-yl)-5-(3-oxomorpholino)-1H-benzo[d]imidazol-2(3H)-ylidene)benzamide] | 6.00 to 7.00 | 6.00 to 7.00
O=C(O)CCn1/c(=N/C(=O)c2cccc(C(F)(F)F)c2)[nH]c2cc(N3CCOCC3=O)ccc21 [Compound 166, (E)-3-(5-(3-oxomorpholino)-2-((3-(trifluoromethyl)benzoyl)imino)-2,3-dihydro-1H-benzo[d]imidazol-1-yl)propanoic acid] | < 6.00 | ≥ 7.00
O=C(O)Cn1/c(=N/C(=O)c2cccc(C(F)(F)F)c2)[nH]c2cc(N3CCOCC3=O)ccc21 [Compound 167, (E)-2-(5-(3-oxomorpholino)-2-((3-(trifluoromethyl)benzoyl)imino)-2,3-dihydro-1H-benzo[d]imidazol-1-yl)acetic acid] | < 6.00 | < 6.00
O=C(O)CCCn1/c(=N/C(=O)c2cccc(C(F)(F)F)c2)[nH]c2cc(N3CCCOC3=O)ccc21 [Compound 168, (E)-4-(5-(2-oxo-1,3-oxazinan-3-yl)-2-((3-(trifluoromethyl)benzoyl)imino)-2,3-dihydro-1H-benzo[d]imidazol-1-yl)butanoic acid] | < 6.00 | ≥ 7.00
